What was measured:
bulrush [1] = experiment: Test Example 1: herbicidal efficacy on rice paddy weeds pre-emergence; type: in vivo, Scirpus juncoides; details: dosage 1000 g/ha, 21 days
false pimpernel [2] = experiment: as above; type: in vivo, Lindernia pyxidaria; details: dosage 1000 g/ha, 21 days
barnyard glass = experiment: Test Example 2: herbicidal efficacy on rice paddy weeds post-emergence; type: in vivo, Echinochloa crus-galli; details: dosage 1000 g/ha; post-emergence, one leaf stage; 21 days after treatment
Method in brief: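 Efficacy on paddy weeds was scored on a 0 to 4 growth-inhibition scale: 4 for 90%-100%, 3 for 70%-89%, 2 for 40%-69%, 1 for 1%-39% and 0 for 0%. Barnyard glass was grown in clay loam in 75 cm^2 pots under 5 cm of water in a hot house. It was compared with untreated pots 21 days after treatment.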

bulrush [3] = experiment: as above; type: in vivo, Scirpus juncoides; details: dosage 1000 g/ha; post-emergence, one leaf stage; 21 days after treatment
false pimpernel [4] = experiment: as above; type: in vivo, Lindernia pyxidaria; details: dosage 1000 g/ha; post-emergence, one leaf stage; 21 days after treatment
[5] = test system: paddy rice plant (cultivar: Nihonbare); experiment: Test Example 3: phytotoxicity test for transplanted paddy rice plant; type: in vivo; details: dosage 1000 g/ha; transplanted rice, treated 5 days after transplantation; 21 days after treatment
Method in brief: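 Clay loam soil was placed in a 75 cm^2 plastic pot and flooded to a water depth of 5 cm. Two Nihonbare paddy rice plants at the two-leaf stage were transplanted 1 cm deep and grown in a hot house. After treatment, pots stayed in the hot house for 21 days, and phytotoxicity was then graded against an untreated control.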

bulrush [6] = experiment: Test Example 4: low dosage test for rice paddy weeds; type: in vivo, Scirpus juncoides; details: 300 g/ha as an active ingredient; plants treated at the one leaf stage; 21 days after treatment; vs untreated control
Method in brief: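 Compound applied as a formulation at 300 g/ha to one-leaf bulrush grown in flooded clay loam (5 cm water) in a hot house. After 21 days, growth inhibition versus untreated plants rated on a 0–4 scale, with 4 meaning 90–100%.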

[7] = test system: transplanted paddy rice plant and Bulrush; experiment: Test Example 5: selectivity between transplanted paddy rice plant and weeds; type: in vivo; details: (highest dosage with no phytotoxicity to paddy rice)/(lowest dosage with effective level 4 on Bulrush); rice 3000-100 g/ha, Bulrush 300-10 g/ha; 21 days
Method in brief: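 Scoring ran 21 days after treatment in a hothouse on a 0–4 scale (4 = 90–100%, 3 = 70–89%, 2 = 40–69%, 1 = 1–39%, 0 = none) relative to untreated plants. Post-emergence bulrush received 10, 30, 100 and 300 g/ha active ingredient. Transplanted rice received 100, 300, 1000 and 3000 g/ha to assess crop injury.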

| Structure (SMILES) | Bulrush pre (herbicidal efficacy grade) (bulrush [1]) | False pimpernel pre (herbicidal efficacy grade) (false pimpernel [2]) | Burnyard grass post (herbicidal efficacy grade) (barnyard glass) | Bulrush post (herbicidal efficacy grade) (bulrush [3]) | False pimpernel post (herbicidal efficacy grade) (false pimpernel [4]) | Phytotoxicity to paddy rice [5] | Herbicide effect to Bulrush (bulrush [6]) | Selective Index [7] |
| --- | --- | --- | --- | --- | --- | --- | --- | --- |
| CCC1(CC)CN(Cc2ccccc2NS(=O)(=O)C(F)(F)F)C(=O)O1 [1-61] | 4 (90%-100% of herbicidal efficacy or phytotoxicity) | 4 (90%-100% of herbicidal efficacy or phytotoxicity) | 4 (90%-100% of herbicidal efficacy or phytotoxicity) | 4 (90%-100% of herbicidal efficacy or phytotoxicity) | 4 (90%-100% of herbicidal efficacy or phytotoxicity) | 1 (1%-39% of herbicidal efficacy or phytotoxicity) | 4 (90%-100% of herbicidal efficacy or phytotoxicity) | 3 |
| CCC1(CC)CN(Cc2ccccc2N(C(=O)OCC(C)C)S(=O)(=O)C(F)(F)F)C(=O)O1 [1-62] | 4 (90%-100% of herbicidal efficacy or phytotoxicity) | 4 (90%-100% of herbicidal efficacy or phytotoxicity) | 4 (90%-100% of herbicidal efficacy or phytotoxicity) | 4 (90%-100% of herbicidal efficacy or phytotoxicity) | 4 (90%-100% of herbicidal efficacy or phytotoxicity) | 1 (1%-39% of herbicidal efficacy or phytotoxicity) | 4 (90%-100% of herbicidal efficacy or phytotoxicity) | 10 |
| CCCCOC(=O)N(c1ccccc1CN1CC(C)(C)OC1=O)S(=O)(=O)C(F)(F)F [1-63] | 4 (90%-100% of herbicidal efficacy or phytotoxicity) | 4 (90%-100% of herbicidal efficacy or phytotoxicity) | 4 (90%-100% of herbicidal efficacy or phytotoxicity) | 4 (90%-100% of herbicidal efficacy or phytotoxicity) | 4 (90%-100% of herbicidal efficacy or phytotoxicity) | 2 (40%-69% of herbicidal efficacy or phytotoxicity) | 4 (90%-100% of herbicidal efficacy or phytotoxicity) | ≧30 |
| COC(=O)N(c1ccccc1CN1CC(C)(C)OC1=O)S(=O)(=O)C(F)(F)F [1-64] | 4 (90%-100% of herbicidal efficacy or phytotoxicity) | 4 (90%-100% of herbicidal efficacy or phytotoxicity) | 4 (90%-100% of herbicidal efficacy or phytotoxicity) | 4 (90%-100% of herbicidal efficacy or phytotoxicity) | 4 (90%-100% of herbicidal efficacy or phytotoxicity) | 2 (40%-69% of herbicidal efficacy or phytotoxicity) | 4 (90%-100% of herbicidal efficacy or phytotoxicity) | ≧30 |
| CC1(C)CN(Cc2ccccc2N(C(=O)OCC(Cl)(Cl)Cl)S(=O)(=O)C(F)(F)F)C(=O)O1 [1-65] | 4 (90%-100% of herbicidal efficacy or phytotoxicity) | 4 (90%-100% of herbicidal efficacy or phytotoxicity) | 4 (90%-100% of herbicidal efficacy or phytotoxicity) | 4 (90%-100% of herbicidal efficacy or phytotoxicity) | 4 (90%-100% of herbicidal efficacy or phytotoxicity) | 1 (1%-39% of herbicidal efficacy or phytotoxicity) | 4 (90%-100% of herbicidal efficacy or phytotoxicity) | 10 |
| CC(C)(C)COC(=O)N(c1ccccc1CN1CC(C)(C)OC1=O)S(=O)(=O)C(F)(F)F [1-66] | 4 (90%-100% of herbicidal efficacy or phytotoxicity) | 4 (90%-100% of herbicidal efficacy or phytotoxicity) | 4 (90%-100% of herbicidal efficacy or phytotoxicity) | 4 (90%-100% of herbicidal efficacy or phytotoxicity) | 4 (90%-100% of herbicidal efficacy or phytotoxicity) | 1 (1%-39% of herbicidal efficacy or phytotoxicity) | 4 (90%-100% of herbicidal efficacy or phytotoxicity) | ≧30 |
| CCC(C)COC(=O)N(c1ccccc1CN1CC(C)(C)OC1=O)S(=O)(=O)C(F)(F)F (stereo not drawn) [1-67] | 4 (90%-100% of herbicidal efficacy or phytotoxicity) | 4 (90%-100% of herbicidal efficacy or phytotoxicity) | 4 (90%-100% of herbicidal efficacy or phytotoxicity) | 4 (90%-100% of herbicidal efficacy or phytotoxicity) | 4 (90%-100% of herbicidal efficacy or phytotoxicity) | 1 (1%-39% of herbicidal efficacy or phytotoxicity) | 4 (90%-100% of herbicidal efficacy or phytotoxicity) | ≧30 |
| CCCCC(CC)COC(=O)N(c1ccccc1CN1CC(C)(C)OC1=O)S(=O)(=O)C(F)(F)F (stereo not drawn) [1-68] | 4 (90%-100% of herbicidal efficacy or phytotoxicity) | 4 (90%-100% of herbicidal efficacy or phytotoxicity) | 4 (90%-100% of herbicidal efficacy or phytotoxicity) | 4 (90%-100% of herbicidal efficacy or phytotoxicity) | 4 (90%-100% of herbicidal efficacy or phytotoxicity) | 1 (1%-39% of herbicidal efficacy or phytotoxicity) | 4 (90%-100% of herbicidal efficacy or phytotoxicity) | 10 |
| CC1(C2CC2)CN(Cc2ccccc2NS(=O)(=O)C(F)(F)F)C(=O)O1 (stereo not drawn) [1-71] | 4 (90%-100% of herbicidal efficacy or phytotoxicity) | 4 (90%-100% of herbicidal efficacy or phytotoxicity) | 4 (90%-100% of herbicidal efficacy or phytotoxicity) | 4 (90%-100% of herbicidal efficacy or phytotoxicity) | 4 (90%-100% of herbicidal efficacy or phytotoxicity) | 1 (1%-39% of herbicidal efficacy or phytotoxicity) | 4 (90%-100% of herbicidal efficacy or phytotoxicity) | 10 |
| CC(C)COC(=O)N(c1ccccc1CN1CC(C)(C2CC2)OC1=O)S(=O)(=O)C(F)(F)F (stereo not drawn) [1-72] | 4 (90%-100% of herbicidal efficacy or phytotoxicity) | 4 (90%-100% of herbicidal efficacy or phytotoxicity) | 4 (90%-100% of herbicidal efficacy or phytotoxicity) | 4 (90%-100% of herbicidal efficacy or phytotoxicity) | 4 (90%-100% of herbicidal efficacy or phytotoxicity) | 1 (1%-39% of herbicidal efficacy or phytotoxicity) | 4 (90%-100% of herbicidal efficacy or phytotoxicity) | 10 |
| CCCOC(=O)N(c1ccccc1CN1CC(C)(C)OC1=O)S(=O)(=O)C(F)(F)F [1-75] | 4 (90%-100% of herbicidal efficacy or phytotoxicity) | 4 (90%-100% of herbicidal efficacy or phytotoxicity) | 4 (90%-100% of herbicidal efficacy or phytotoxicity) | 4 (90%-100% of herbicidal efficacy or phytotoxicity) | 4 (90%-100% of herbicidal efficacy or phytotoxicity) | 1 (1%-39% of herbicidal efficacy or phytotoxicity) | 4 (90%-100% of herbicidal efficacy or phytotoxicity) | ≧30 |
| CC(C)OC(=O)N(c1ccccc1CN1CC(C)(C)OC1=O)S(=O)(=O)C(F)(F)F [1-76] | 4 (90%-100% of herbicidal efficacy or phytotoxicity) | 4 (90%-100% of herbicidal efficacy or phytotoxicity) | 4 (90%-100% of herbicidal efficacy or phytotoxicity) | 4 (90%-100% of herbicidal efficacy or phytotoxicity) | 4 (90%-100% of herbicidal efficacy or phytotoxicity) | 2 (40%-69% of herbicidal efficacy or phytotoxicity) | 4 (90%-100% of herbicidal efficacy or phytotoxicity) | 30 |

— patent US20080274892A1, “Novel Haloalkylsulfonanilide Derivative, Herbicide, and Method of Use Thereof” (priority 2005, published 2008)
